Measured values as given in US20220273590A1, “COMPOUNDS FOR PREVENTION AND TREATMENT OF POST-OPERATIVE COGNITIVE DYSFUNCTION” (ABREXA PHARMACEUTICALS, INC., priority 2019, published 2022).
Where “and” joins values, the source holds several entries; their conditions need not be identical. Equal values may be shown once. Read-outs that look alike come from different tables or passages of the source.

Assays:
[1] = Plasma levels of J147 after oral administration in Basis suspension; type: in vivo, Adult Wister Rats; settings: oral 20 mg/kg in Basis suspension
Protocol: (§1) Plasma samples obtained during surgery in J147-treated rats and 3 control rats were measured for circulating levels of J147. Results of pharmacokinetic measures of both plasma and brain levels of J147 in rats following oral administration of J147 in basis suspension at 20 mg/kg and also following intravascular administration at 5 mg/kg are shown in Table 2A-C below. When taking the absence of an appropriate peak as zero, mean concentration is 0 ng/ml in controls, 3.103 ng/ml in acutely treated rats and 0.233 ng/ml in chronically treated rats. J147 levels in food were verified as well (467 mg/kg). […] During the first 10 days after surgery and individual housing, rats on the diet ate on average 20±1 g, which was similar to the 20±1 g in surgery with control food and 23±1 g in non-surgery controls, verifying the anticipated intake of 10 mg J147/rat/day and further supporting no preference or aversion for the diet food.
(§2) Tables 2A-2B. Pharmacokinetic Measures of Plasma and Brain Levels of J147 Formulated in Basis Suspension Administered Orally to Adult Wister Rats at 20mg/kg.

animal model of POCD = test: Open Field test after abdominal surgery; type: in vivo, Wistar rats
Protocol: Male Wistar rats (˜350 g) were randomly divided into 4 experimental groups; non-surgery; control abdominal surgery; surgery+acute J147 treatment (7 mg/rat by gavage, 4-5 hours before surgery); surgery+chronic J147 (500 mg/kg food, 1 week before surgery until the end of the study). Timed blood samples were collected. Days 9-11 post surgery, general behavior (Open field: OF) and cognitive performance (Novel Object/Novel Location Recognition: NOR/NLR; Morris Water Maze: MWM) were tested. Day 14, rats were sacrificed and blood and brain tissue were collected for further analyses. (Neuro)inflammation was examined by circulating cytokine levels and microglia activation in the brain. Abdominal surgery was performed as described previously by Hovens et al., 2014. Rats were anaesthetized using sevoflurane (±2.5% in air/O2=2/1) and received 0.01 mg/kg buprenorphine s.c. A heating blanket was used to preserve body temperature. An incision was made along the linea alba and the intestines were exteriorised. The upper mesenteric artery was isolated from surrounding tissue and clamped for a period of 30 minutes during which the intestines and surgical wound were covered with gauze soaked in saline, to prevent dehydration. During this time the animals were equipped with an indwelling jugular vein catheter to mimic insertion of a venous line in patients and allow timed blood sampling. For that, an incision was made at the subclavical region, the jugular vein was freed from surrounding tissue and a catheter was introduced and advanced into the vena cava, just above the right atrium. The other end of the catheter was guided subcutaneously to the head, and fixated on the skull with dental cement. The catheter was filled with PVP dissolved in heparin solution and closed with a plastic plug. After subsequent removal of the mesenteric artery clamp, the intestines were gently placed back and the abdominal wall and skin were closed separately by sutures. Clamping and reperfusion were visually verified by absence or presence of pulsation in the mesenteric artery distal to the clamp site. From induction to recovery, the procedure takes approximately 60 minutes. Post-operatively, the animals were allowed to recover and subsequently were housed individually. Rats were weighed daily at the last hour of the dark period. Maximal weight loss within the first 5 days post-surgery was taken as measure of experienced severity of surgery. Behavioral tests were performed in the dark (active) period of the rats. […] The movement as well as location of the rat was recorded as time in corner, walls and center, number of visits in the center and the distance walked, and analyzed with Ethovision (Noldus, the Netherlands). Rearing behavior was analyzed by Eline. […]

[2] = Brain levels of J147 after oral administration in Basis suspension; type: in vivo, Adult Wister Rats; settings: oral 20 mg/kg in Basis suspension, PO_B satellite
Protocol: as §1, §2
• All of the brain samples were added with […] by brain weight (g) to PBS volume (mL) ratio 1:3 for homogenization. • The actual concentration (ng/g) is the detected value (ng/mL) multiplied by 4. • BLOQ: Below limit of quantitation (LLOQ: 2 ng/g) • NA: not available

- concentration at 0.25 h ([1]; Wistar, rat, plasma, po, 20 mg/kg, 0.25 h, individual rats (Rat 10, 11, 12), read-out: Plasma Conc.): 1.29 ng/mL
- concentration at 0.25 h ([1]; Wistar, rat, plasma, po, 20 mg/kg, 0.25 h, mean of rats, read-out: Plasma Conc. Mean): 1.34 ng/mL
- concentration at 0.5 h ([1]; Wistar, rat, plasma, po, 20 mg/kg, 0.5 h, mean of rats, read-out: Plasma Conc. Mean): 3.94 ng/mL
- concentration at 1 h ([1]; Wistar, rat, plasma, po, 20 mg/kg, 1 h, individual rats (Rat 10, 11, 12), read-out: Plasma Conc.): 7.34 ng/mL
- concentration at 1 h ([1]; Wistar, rat, plasma, po, 20 mg/kg, 1 h, mean of rats, read-out: Plasma Conc. Mean): 8.19 ng/mL
- concentration at 2 h ([1]; Wistar, rat, plasma, po, 20 mg/kg, 2 h, individual rats (Rat 10, 11, 12), read-out: Plasma Conc.): 15.1 ng/mL
- concentration at 2 h ([1]; Wistar, rat, plasma, po, 20 mg/kg, 2 h, mean of rats, read-out: Plasma Conc. Mean): 15.8 ng/mL
- concentration at 4 h ([1]; Wistar, rat, plasma, po, 20 mg/kg, 4 h, mean of rats, read-out: Plasma Conc. Mean): 8.8 ng/mL
- concentration at 6 h ([1]; Wistar, rat, plasma, po, 20 mg/kg, 6 h, individual rats (Rat 10, 11, 12), read-out: Plasma Conc.): 3.14 ng/mL
- concentration at 6 h ([1]; Wistar, rat, plasma, po, 20 mg/kg, 6 h, mean of rats, read-out: Plasma Conc. Mean): 2.46 ng/mL
- concentration at 8 h ([1]; Wistar, rat, plasma, po, 20 mg/kg, 8 h, individual rats (Rat 10, 11, 12), read-out: Plasma Conc.): 0.822 ng/mL
- concentration at 8 h ([1]; Wistar, rat, plasma, po, 20 mg/kg, 8 h, mean of rats, read-out: Plasma Conc. Mean): 0.788 ng/mL
- Plasma Conc. ([1]; 0.25 h, individual rats (Rat 10, 11, 12), 20 mg/kg): BLOQ and 1.38 ng/mL
- Plasma Conc. ([1]; 0.5 h, individual rats (Rat 10, 11, 12), 20 mg/kg): 1.52 ng/mL and 5.77 ng/mL and 4.54 ng/mL
- Plasma Conc. ([1]; 1 h, individual rats (Rat 10, 11, 12), 20 mg/kg): 8.39 ng/mL and 8.83 ng/mL
- Plasma Conc. ([1]; 2 h, individual rats (Rat 10, 11, 12), 20 mg/kg): 16.9 ng/mL and 15.4 ng/mL
- Plasma Conc. ([1]; 4 h, individual rats (Rat 10, 11, 12), 20 mg/kg): 6.92 ng/mL and 6.35 ng/mL and 13.2 ng/mL
- Plasma Conc. ([1]; 6 h, individual rats (Rat 10, 11, 12), 20 mg/kg): 1.78 ng/mL and 2.47 ng/mL
- Plasma Conc. ([1]; 8 h, individual rats (Rat 10, 11, 12), 20 mg/kg): 0.654 ng/mL and 0.888 ng/mL
- Plasma Conc. ([1]; 12 h, individual rats (Rat 10, 11, 12)): BLOQ
- Plasma Conc. ([1]; 16 h, individual rats (Rat 10, 11, 12)): BLOQ
- Plasma Conc. ([1]; 20 h, individual rats (Rat 10, 11, 12)): BLOQ
- Plasma Conc. ([1]; 24 h, individual rats (Rat 10, 11, 12)): BLOQ
- concentration at 0.25 h ([2]; Wistar, rat, brain homogenate, po, 20 mg/kg, brain homogenate 1:3, Group 1, Group 2, LLOQ 2 ng/g, read-out: Brain Detected Conc.): 0.736 ng/mL
- concentration at 0.5 h ([2]; Wistar, rat, brain homogenate, po, 20 mg/kg, 0.5 h, brain homogenate 1:3, Group 1, Group 2, LLOQ 2 ng/g, read-out: Brain Detected Conc.): 1.14 ng/mL
- concentration at 1 h ([2]; Wistar, rat, brain homogenate, po, 20 mg/kg, 1 h, brain homogenate 1:3, Group 1, Group 2, LLOQ 2 ng/g, read-out: Brain Detected Conc.): 7.01 ng/mL
- concentration at 8 h ([2]; Wistar, rat, brain homogenate, po, 20 mg/kg, 8 h, brain homogenate 1:3, Group 1, Group 2, LLOQ 2 ng/g, read-out: Brain Detected Conc.): 0.831 ng/mL
- concentration at 0.25 h ([2]; Wistar, rat, brain, po, 20 mg/kg, detected value multiplied by 4, Group 1, Group 2, read-out: Brain Actual Conc.): 2.94 ng/g
- concentration at 0.5 h ([2]; Wistar, rat, brain, po, 20 mg/kg, 0.5 h, detected value multiplied by 4, Group 1, Group 2, read-out: Brain Actual Conc.): 4.56 ng/g
- concentration at 0.5 h ([2]; Wistar, rat, brain, po, 20 mg/kg, 0.5 h, mean of Group 1 and 2, read-out: Brain Actual Conc. Mean): 3.94 ng/g
- concentration at 1 h ([2]; Wistar, rat, brain, po, 20 mg/kg, 1 h, detected value multiplied by 4, Group 1, Group 2, read-out: Brain Actual Conc.): 28 ng/g
- concentration at 1 h ([2]; Wistar, rat, brain, po, 20 mg/kg, 1 h, mean of Group 1 and 2, read-out: Brain Actual Conc. Mean): 23.7 ng/g
- concentration at 2 h ([2]; Wistar, rat, brain, po, 20 mg/kg, 2 h, mean of Group 1 and 2, read-out: Brain Actual Conc. Mean): 28 ng/g
- concentration at 4 h ([2]; Wistar, rat, brain, po, 20 mg/kg, 4 h, mean of Group 1 and 2, read-out: Brain Actual Conc. Mean): 20.6 ng/g
- concentration at 8 h ([2]; Wistar, rat, brain, po, 20 mg/kg, 8 h, detected value multiplied by 4, Group 1, Group 2, read-out: Brain Actual Conc.): 3.32 ng/g
- concentration at 8 h ([2]; Wistar, rat, brain, po, 20 mg/kg, 8 h, mean of Group 1 and 2, read-out: Brain Actual Conc. Mean): 3.26 ng/g
- Brain Detected Conc. ([2]; 0.5 h, brain homogenate 1:3, Group 1, Group 2, LLOQ 2 ng/g, 20 mg/kg): 0.830 ng/mL
- Brain Actual Conc. ([2]; 0.5 h, detected value multiplied by 4, Group 1, Group 2, 20 mg/kg): 3.32 ng/g
- Brain Detected Conc. ([2]; 1 h, brain homogenate 1:3, Group 1, Group 2, LLOQ 2 ng/g, 20 mg/kg): 4.83 ng/mL
- Brain Actual Conc. ([2]; 1 h, detected value multiplied by 4, Group 1, Group 2, 20 mg/kg): 19.3 ng/g
- Brain Detected Conc. ([2]; 8 h, brain homogenate 1:3, Group 1, Group 2, LLOQ 2 ng/g, 20 mg/kg): 0.799 ng/mL
- Brain Actual Conc. ([2]; 8 h, detected value multiplied by 4, Group 1, Group 2, 20 mg/kg): 3.20 ng/g
- Brain Detected Conc. ([2]; 12 h, brain homogenate 1:3, Group 1, Group 2, LLOQ 2 ng/g): BLOQ
- Brain Detected Conc. ([2]; 16 h, brain homogenate 1:3, Group 1, Group 2, LLOQ 2 ng/g): BLOQ
- Brain Detected Conc. ([2]; 20 h, brain homogenate 1:3, Group 1, Group 2, LLOQ 2 ng/g): BLOQ
- Brain Detected Conc. ([2]; 24 h, brain homogenate 1:3, Group 1, Group 2, LLOQ 2 ng/g): BLOQ
Compound: COc1cccc(/C=N/N(C(=O)C(F)(F)F)c2ccc(C)cc2C)c1 [J147]
- Open field: effect of treatment on time in the center area or distance walked (animal model of POCD; acute or chronic J147, surgery rats): no significant effects
- Open field: rearing behavior (animal model of POCD; surgery + chronic J147): significantly more rearing behavior
- Open field: visits to the center area (animal model of POCD; surgery + chronic J147): significantly more often
- Open field: time in the center (animal model of POCD; surgery + chronic J147, versus the other groups): tend to spend more time in the center
